Activity calls are given as the source filed them. No cut-off for these calls is given here.
System: Replicase polyprotein 1ab (Severe acute respiratory syndrome coronavirus 2), P0DTD1 [C145A]
Assay: Binding affinity to recombinant hexa-His tagged SARS-COV2 main protease C145A mutant expressed in HEK293T cells by in-gel fluorescence analysis
Format: cell-based

Compound: C#CC[C@H](NC(=O)C(F)(F)F)C(=O)N1C[C@H]2[C@@H]([C@H]1C(=O)N[C@H](C#C)C[C@@H]1CCNC1=O)C2(C)C
- Activity: inactive

Source: ChEMBL document CHEMBL5365428, “Alkyne as a Latent Warhead to Covalently Target SARS-CoV-2 Main Protease” (J Med Chem, 2023)
